From patent US9102648B1, “Bioavailable diacylhydrazine ligands for modulating the expression of exogenous genes via an ecdysone receptor complex” (Intrexon Corporation, priority 2003, dated 2015) come the findings set out here.

Read-outs that look alike come from different tables or passages of the source.

For orientation: EC50 means the concentration that produces a half-maximal response.

The target in the data set is GAL4 DBD (1-147)-CfEcR(DEF)/VP16AD-βRXREF-LmUSPEF (Choristoneura fumiferana, UniProt O77240). Kind of data set: cell-based. The note with it: for Fold Induction, 27-63 Assay, 3.3 uM: 3.3 uM ligand; for Fold Induction, 27-63 Assay, 3.3 uM / Fold Induction, 27-63 Assay, 33 uM: RLU ligand treated / RLU DMSO treated cells; for Fold Induction, 27-63 Assay, 33 uM: 33 uM ligand; for 27-63 assay Rel Max FI: maximum fold induction at any concentration relative to that of GS-E ligand, CHO 27-63 cells; for fold induction at 33 µM: read-out: Fold Induction, 27-63 Assay, 33 uM. From the text:
GAL4 DBD (1-147)-CfEcR(DEF)/VP16AD-βRXREF-LmUSPEF:
The wild-type D, E, and F domains from spruce budworm Choristoneura fumiferana EcR (“CfEcR-DEF”; SEQ ID NO: 1) were fused to a GAL4 DNA binding domain (“Gal4DBD1-147”; SEQ ID NO: 2) and placed under the control of a phosphoglycerate kinase promoter (“PGK”; SEQ ID NO: 3). Helices 1 through 8 of the EF domains from Homo sapiens RXRβ (“HsRXRβ-EF”; nucleotides 1-465 of SEQ ID NO: 4) and helices 9 through 12 of the EF domains of Locusta migratoria Ultraspiracle Protein (“LmUSP-EF”; nucleotides 403-630 of SEQ ID NO: 5) were fused to the transactivation domain from VP16 (“VP16AD”; SEQ ID NO: 6) and placed under the control of an elongation factor-1α promoter (“EF-1α”; SEQ ID NO: 7). Five consensus GAL4 response element binding sites (“5XGAL4RE”; comprising 5 copies of a GAL4RE comprising SEQ ID NO: 8) were fused to a synthetic TATA minimal promoter (SEQ ID NO: 9) and placed upstream of the luciferase reporter gene (SEQ ID NO: 10).
CHO cells were transiently transfected with transcription cassettes for GAL4 DBD (1-147) CJEcR(DEF) and for VP16AD βRXREF-LmUSPEF controlled by ubiquitously active cellular promoters (PGK and EF-la, respectively) on a single plasmid. Stably transfected cells were selected by Zeocin resistance. Individually isolated CHO cell clones were transiently transfected with a GAL4 RE-luciferase reporter (pFR Luc). 27-63 clone was selected using Hygromycin.
Cells were trypsinized and diluted to a concentration of 2.5×10^4 cells mL. 100 μL of cell suspension was placed in each well of a 96 well plate and incubated at 37° C. under 5% CO2 for 24 h. Ligand stock solutions were prepared in DMSO and diluted 300 fold for all treatments. Dose response testing consisted of 8 concentrations ranging from […] to 0.01 μM.
Luciferase reporter gene expression was measured 48 h after cell treatment using Bright-Glo™ Luciferase Assay System from Promega (E2650). Luminescence was detected at room temperature using a Dynex MLX microtiter plate luminometer.
Each assay was conducted in two separate wells, and the two values were averaged. Fold inductions were calculated by dividing relative light units (“RLU”) in ligand treated cells with RLU in DMSO treated cells. EC50s were calculated from dose response data using a three-parameter logistic model.

Where [1] appears, read: read-out: 27-63 assay EC50, CHO 27-63 stable cell line, luciferase reporter, average of two wells.

As for `CCCCC(N(NC(=O)c1ccc(CC)cc1)C(=O)c1cc(OC)c(C)c(OC)c1)C(C)(C)C` (centres unmarked) [RG-115841], the “27-63 assay Rel Max FI” value amounted to 0.610. For the setting “average of two wells”, the “Fold Induction, 27-63 Assay, 3.3 uM” value stood at 1407 and the “Fold Induction, 27-63 Assay, 33 uM” value is recorded as 437. Further, the EC50 under setting [1] turned out to be 2.02 µM.

Turning to `COc1cccc(C(=O)NN(C(=O)c2cc(Cl)nnc2Cl)C(C)(C)C)c1C` [RG-115861], the “27-63 assay Rel Max FI” value is recorded as 0.215. For the setting “average of two wells”, the “Fold Induction, 27-63 Assay, 3.3 uM” value was 8 and the “Fold Induction, 27-63 Assay, 33 uM” value is 593. Besides, under setting [1], the EC50 is 4.31 µM.

As for `COc1cc(C(=O)N(NC(=O)c2cccc(OC)c2C)C(C)(C)C)c(=O)[nH]n1` [RG-115863], the “27-63 assay Rel Max FI” value was found to be 0.154. Moreover, for the setting “average of two wells”, the “Fold Induction, 27-63 Assay, 3.3 uM” value is 1 and the “Fold Induction, 27-63 Assay, 33 uM” value amounted to 804. Also, under setting [1], the EC50 is over 33 µM.

With `CCCC(N(NC(=O)c1ccc2c(c1CC)OCCO2)C(=O)c1cc(OC)c(C)c(OC)c1)C(C)(C)C` (centres unmarked) [RG-115867, 3,5-Dimethoxy-4-methyl-benzoic acid N-(1-tert-butyl-butyl)-N′-(5-ethyl-2,3-dihydro-benzo[1,4]dioxine-6-carbonyl)-hydrazide], the fold induction at 33 µM came out at 654.

`COc1cc(C(=O)N(NC(=O)c2cccc(OC)c2C)C(C)(C)C)c(OC)nn1` [RG-115850]: the “27-63 assay Rel Max FI” value is 0.001. In addition, for the setting “average of two wells”, the “Fold Induction, 27-63 Assay, 3.3 uM” value is recorded as 1 and the “Fold Induction, 27-63 Assay, 33 uM” value amounted to 23. For the same compound, the EC50 under setting [1] is over 33 µM.

For the compound `CCc1c(C(=O)NN(C(=O)c2cc(OC)c(C)c(OC)c2)C(CC)C(C)(C)C)ccc2c1OCCO2` (centres unmarked) [RG-115859, 3,5-Dimethoxy-4-methyl-benzoic acid N′-(5-ethyl-2,3-dihydro-benzo[1,4]dioxine-6-carbonyl)-N-(1-ethyl-2,2-dimethyl-propyl)-hydrazide], the concentration giving a half-maximal response (EC50) amounted to 0.007 µM, the “27-63 assay Rel Max FI” value worked out at 1.218 and the fold induction at 33 µM is 1060.

Regarding `CCc1ccc(C(=O)NN(C(=O)c2cccnc2OC)C(CC)C(C)(C)C)cc1` (centres unmarked) [RG-115837], the “27-63 assay Rel Max FI” value is 0.569. In addition, under “average of two wells”, the “Fold Induction, 27-63 Assay, 3.3 uM” value stood at 1474 and the “Fold Induction, 27-63 Assay, 33 uM” value was 1156. For the same compound, the EC50 under setting [1] worked out at 1.11 µM.

Consider `CCc1ccc(C(=O)NN(C(=O)c2cc(C)cc(C)c2)C(CC)C(C)(C)C)cc1` (centres unmarked) [RG-115836], for which the “27-63 assay Rel Max FI” value came to 0.808. Also, where the note is “average of two wells”, the “Fold Induction, 27-63 Assay, 3.3 uM” value worked out at 1822 and the “Fold Induction, 27-63 Assay, 33 uM” value was determined as 823. In addition, the EC50 under setting [1] turned out to be 0.098 µM.

With `COc1cccc(C(=O)NN(C(=O)c2ccc(C(F)(F)F)nc2OC)C(C)(C)C)c1C` [RG-115834], the “27-63 assay Rel Max FI” value came to 0.733. In addition, under “average of two wells”, the “Fold Induction, 27-63 Assay, 3.3 uM” value is 1900 and the “Fold Induction, 27-63 Assay, 33 uM” value is recorded as 1837. The EC50 under setting [1] is 1.17 µM.

With `CCc1ccc(C(=O)NN(C(=O)c2cc(OC)c(C)c(OC)c2)C(c2ccccc2)C(C)(C)C)cc1` (racemic) [RG-115847], the “27-63 assay Rel Max FI” value was found to be 1.120. Where the note is “average of two wells”, the “Fold Induction, 27-63 Assay, 3.3 uM” value is 2729 and the “Fold Induction, 27-63 Assay, 33 uM” value is 848. Also, the EC50 under setting [1] was found to be 1.1 µM.

Regarding `COc1cccc(C(=O)NN(C(=O)c2ccnnc2)C(C)(C)C)c1C` [RG-115862], the “27-63 assay Rel Max FI” value amounted to 0.048. In addition, under “average of two wells”, the “Fold Induction, 27-63 Assay, 3.3 uM” value was 1 and the “Fold Induction, 27-63 Assay, 33 uM” value is reported as 243. The 50% effective concentration (EC50) under setting [1] is over 33 µM.

As for `CCCC(N(NC(=O)c1ccc2c(c1C)OCCO2)C(=O)c1cc(OC)c(C)c(OC)c1)C(C)(C)C` (centres unmarked) [RG-115865, 3,5-Dimethoxy-4-methyl-benzoic acid N-(1-tert-butyl-butyl)-N′-(5-methyl-2,3-dihydrobenzo[1,4]dioxine-6-carbonyl)-hydrazide], the midpoint of the response, the EC50, lay at 0.01 µM; the “27-63 assay Rel Max FI” value is recorded as 1.246; the fold induction at 33 µM was 76.

As to `CCc1ccc(C(=O)NN(C(=O)c2cc(C)cc(C)c2)C(c2ccccc2)C(C)(C)C)cc1` (centres unmarked) [RG-115846], the “27-63 assay Rel Max FI” value came to 0.846. Besides, under “average of two wells”, the “Fold Induction, 27-63 Assay, 3.3 uM” value came to 1643 and the “Fold Induction, 27-63 Assay, 33 uM” value was 645. In addition, the EC50 under setting [1] is 0.095 µM.

On to `COc1cc(C(=O)N(NC(=O)c2cccc(OC)c2C)C(C)(C)C)nc(OC)n1` [RG-115849], for which the “27-63 assay Rel Max FI” value was 0.007. Also, under “average of two wells”, the “Fold Induction, 27-63 Assay, 3.3 uM” value is given as 1 and the “Fold Induction, 27-63 Assay, 33 uM” value is 231. Besides, under setting [1], the EC50 was over 33 µM.

In the case of `CCCCC(N(NC(=O)c1cccc(OC)c1C)C(=O)c1cc(OC)c(C)c(OC)c1)C(C)(C)C` (centres unmarked) [RG-115852, 3,5-dimethoxy-4-methyl-benzoic acid N-(1-tert-butyl-pentyl)-N′-(3-methoxy-2-methyl-benzoyl)-hydrazide], a half-maximal response (EC50) required 0.07 µM and the “27-63 assay Rel Max FI” value was 1.

Turning to `CCCCC(N(NC(=O)c1cccc(OC)c1C)C(=O)c1cc(C)cc(C)c1)C(C)(C)C` (centres unmarked) [RG-115851, 3,5-dimethyl-benzoic acid N-(1-tert-butyl-pentyl)-N′-(3-methoxy-2-methyl-benzoyl)-hydrazide], it took 0.02 µM to reach a half-maximal effect (EC50) and the “27-63 assay Rel Max FI” value was found to be 1.

For the compound `COc1cccc(C(=O)NN(C(=O)c2ccc(C(F)(F)F)n(C)c2=O)C(C)(C)C)c1C` [RG-115835], the “27-63 assay Rel Max FI” value came to 0.731. For the same compound, for the setting “average of two wells”, the “Fold Induction, 27-63 Assay, 3.3 uM” value was found to be 3 and the “Fold Induction, 27-63 Assay, 33 uM” value was determined as 1895. In addition, under setting [1], the EC50 was 20 µM.

`CCCCC(N(NC(=O)c1ccc(CC)cc1)C(=O)c1cc(C)cc(C)c1)C(C)(C)C` (centres unmarked) [RG-115840]: the “27-63 assay Rel Max FI” value came to 0.776. Also, under “average of two wells”, the “Fold Induction, 27-63 Assay, 3.3 uM” value is listed as 1612 and the “Fold Induction, 27-63 Assay, 33 uM” value stood at 263. The EC50 under setting [1] came out at 0.11 µM.

As to `CCCC(N(NC(=O)c1ccc2c(c1CC)OCCO2)C(=O)c1cc(C)cc(C)c1)C(C)(C)C` (centres unmarked) [RG-115866, 3,5-Dimethyl-benzoic acid N-(1-tert-butyl-butyl)-N′-(5-ethyl-2,3-dihydro-benzo[1,4]dioxine-6-carbonyl)-hydrazide], it took 0.01 µM to reach a half-maximal effect (EC50), the “27-63 assay Rel Max FI” value was determined as 0.999 and the fold induction at 33 µM is 3.

For `CCc1ccc(C(=O)NN(C(=O)c2cccnc2OC)C(c2ccccc2)C(C)(C)C)cc1` (centres unmarked) [RG-115848], the “27-63 assay Rel Max FI” value is on record as 0.494. Further, where the note is “average of two wells”, the “Fold Induction, 27-63 Assay, 3.3 uM” value is given as 1346 and the “Fold Induction, 27-63 Assay, 33 uM” value was 1156. Also, the half-maximal effective concentration (EC50) under setting [1] worked out at 1.29 µM.

Regarding `CCCCC(N(NC(=O)c1ccc(CC)cc1)C(=O)c1cccnc1OC)C(C)(C)C` (centres unmarked) [RG-115842], the “27-63 assay Rel Max FI” value is reported as 0.524. Moreover, for the setting “average of two wells”, the “Fold Induction, 27-63 Assay, 3.3 uM” value was 1269 and the “Fold Induction, 27-63 Assay, 33 uM” value is given as 447. For the same compound, under setting [1], the EC50 was found to be 1.2 µM.
